According to ChEMBL document CHEMBL1142343, “Design and structure-activity relationships of potent and selective inhibitors of undecaprenyl pyrophosphate synthase (UPPS): tetramic, tetronic acids and dihydropyridin-2-ones” (Bioorg Med Chem Lett, 2008):
In brackets after ≈: the same amount, converted by molar mass.

What was measured:
Streptococcus pneumoniae = assay: Antibacterial activity against Streptococcus pneumoniae by microdilution broth method; format: functional
Staphylococcus aureus = assay: Antibacterial activity against Staphylococcus aureus by microdilution broth method; format: functional
[1] = Dissociation constant, pKa of the compound; format: physicochemical
Isoprenyl transferase = biological target: T1, Isoprenyl transferase (Streptococcus pneumoniae serotype 4 (strain ATCC BAA-334 / TIGR4), UniProt Q97SR4); assay: Inhibition of Streptococcus pneumoniae UPPS
T1 sequence (Q97SR4 whole entry): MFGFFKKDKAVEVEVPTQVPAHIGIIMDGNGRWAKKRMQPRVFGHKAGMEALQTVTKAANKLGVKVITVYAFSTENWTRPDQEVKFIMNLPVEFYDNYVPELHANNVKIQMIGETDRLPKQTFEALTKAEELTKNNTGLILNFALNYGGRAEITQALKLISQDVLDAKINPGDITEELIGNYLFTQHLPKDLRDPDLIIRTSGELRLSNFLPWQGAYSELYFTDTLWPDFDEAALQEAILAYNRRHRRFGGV

Enterococcus faecalis = assay: Antibacterial activity against Enterococcus faecalis by microdilution broth method; format: functional
[2] = biological target: T2, Farnesyl pyrophosphate synthase (Homo sapiens, UniProt P14324); assay: Inhibition of human FPPS
T2 sequence (P14324 whole entry): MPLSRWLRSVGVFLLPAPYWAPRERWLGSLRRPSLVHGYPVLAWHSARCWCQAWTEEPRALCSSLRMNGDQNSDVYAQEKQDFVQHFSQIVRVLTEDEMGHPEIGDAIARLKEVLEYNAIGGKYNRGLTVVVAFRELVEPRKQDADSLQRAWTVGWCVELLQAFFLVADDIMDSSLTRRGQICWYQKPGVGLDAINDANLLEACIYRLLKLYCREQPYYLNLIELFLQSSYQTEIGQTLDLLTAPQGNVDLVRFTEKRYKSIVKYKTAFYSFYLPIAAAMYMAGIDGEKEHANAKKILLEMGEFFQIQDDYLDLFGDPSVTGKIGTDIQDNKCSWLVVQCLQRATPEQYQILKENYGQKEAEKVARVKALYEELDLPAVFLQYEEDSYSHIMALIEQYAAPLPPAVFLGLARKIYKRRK

SMILES	MIC (Streptococcus pneumoniae)	MIC (Staphylococcus aureus)	pKa [1]	IC50 (Isoprenyl transferase)	MIC (Enterococcus faecalis)	IC50 [2]
O=C(Nc1ccc(C2CCCCC2)cc1)C1=C(O)C(Cc2ccccc2)NC1=O (centres undefined)	1 µg/mL (≈ 2.56 µM)	0.5 µg/mL (≈ 1.28 µM)	3	1800 nM	8 µg/mL (≈ 20.5 µM)	> 100000 nM
O=C(Nc1ccc(C2CCCCC2)cc1)C1=C(O)CC(c2ccccc2)NC1=O (centres undefined)	4 µg/mL (≈ 10.2 µM)	4 µg/mL (≈ 10.2 µM)	6.5	200 nM	8 µg/mL (≈ 20.5 µM)	> 50000 nM
O=C(Nc1ccc(Nc2ccccc2)cc1)C1=C(O)CC(Cc2ccccc2)NC1=O (centres undefined)	–	–	6.5	1100 nM	–	–
O=C(Nc1ccc(C2CCCCC2)cc1)C1=C(O)C(c2ccccc2)NC1=O (centres undefined)	2 µg/mL (≈ 5.31 µM)	2 µg/mL (≈ 5.31 µM)	3	3500 nM	4 µg/mL (≈ 10.6 µM)	> 100000 nM
O=C(Nc1ccc(F)cc1)C1=C(O)C(CCc2ccccc2)NC1=O (centres undefined)	16 µg/mL (≈ 47 µM)	16 µg/mL (≈ 47 µM)	3	2500 nM	64 µg/mL (≈ 188 µM)	–
COCC1NC(=O)C(C(=O)Nc2ccc(C3CCCCC3)cc2)=C1O (centres undefined)	–	–	3	> 50000 nM	–	–
O=C(Nc1ccc(-n2ccnc2)cc1)C1=C(O)CC(Cc2ccccc2)NC1=O (centres undefined)	32 µg/mL (≈ 82.4 µM)	32 µg/mL (≈ 82.4 µM)	6.5	630 nM	32 µg/mL (≈ 82.4 µM)	–
O=C1NCC(Cc2ccccc2)C(O)=C1C(=O)Nc1ccc(-n2ccnc2)cc1 (centres undefined)	32 µg/mL (≈ 82.4 µM)	64 µg/mL (≈ 165 µM)	–	8800 nM	4 µg/mL (≈ 10.3 µM)	–
CC(C)CC1NC(=O)C(C(=O)Nc2ccc(C3CCCCC3)cc2)=C1O (centres undefined)	1 µg/mL (≈ 2.81 µM)	0.5 µg/mL (≈ 1.4 µM)	3	1300 nM	2 µg/mL (≈ 5.61 µM)	> 50000 nM
O=C1NCC(CC2CCCCC2)C(O)=C1C(=O)Nc1ccc(-n2ccnc2)cc1 (centres undefined)	16 µg/mL (≈ 40.6 µM)	16 µg/mL (≈ 40.6 µM)	–	2100 nM	4 µg/mL (≈ 10.1 µM)	–
O=C(Nc1ccc(Cl)cc1)C1=C(O)C(c2ccccc2)OC1=O (centres undefined)	64 µg/mL (≈ 194 µM)	> 64 µg/mL	–	24000 nM	> 64 µg/mL	> 50000 nM
O=C(NC1CCCCC1)C1=C(O)C(CCc2ccccc2)NC1=O (centres undefined)	64 µg/mL (≈ 195 µM)	32 µg/mL (≈ 97.4 µM)	3	35000 nM	32 µg/mL (≈ 97.4 µM)	–
O=C(Nc1ccc(S(=O)(=O)c2ccccc2)cc1)C1=C(O)CC(Cc2ccccc2)NC1=O (centres undefined)	16 µg/mL (≈ 34.6 µM)	32 µg/mL (≈ 69.2 µM)	6.5	8500 nM	16 µg/mL (≈ 34.6 µM)	–
O=C(Nc1cc(Cl)cc(Cl)c1)C1=C(O)C(c2ccccc2)OC1=O (centres undefined)	4 µg/mL (≈ 11 µM)	32 µg/mL (≈ 87.9 µM)	–	2000 nM	32 µg/mL (≈ 87.9 µM)	> 50000 nM
O=C(Nc1ccc(C2CCCCC2)cc1)C1=C(O)C(Cc2ncc[nH]2)NC1=O (centres undefined)	8 µg/mL (≈ 21 µM)	16 µg/mL (≈ 42.1 µM)	3	4200 nM	16 µg/mL (≈ 42.1 µM)	–
O=C(Nc1ccc(N2CCCCC2)cc1)C1=C(O)C(CCc2ccccc2)NC1=O (centres undefined)	4 µg/mL (≈ 9.86 µM)	4 µg/mL (≈ 9.86 µM)	3	800 nM	8 µg/mL (≈ 19.7 µM)	> 50000 nM
CCCCCCOc1ccc(NC(=O)C2=C(O)C(Cc3ccccc3)NC2=O)cc1 (centres undefined)	–	–	3	19000 nM	–	–
O=C(Nc1ccc(C2CCCCC2)cc1)C1=C(O)CN(Cc2ccccc2)C1=O	–	0.5 µg/mL (≈ 1.28 µM)	3	300 nM	1 µg/mL (≈ 2.56 µM)	8000 nM
O=C1NCC(O)=C1C(=O)Nc1ccc(C2CCCCC2)cc1	–	–	3	58000 nM	–	–
O=C(Nc1ccc(C2CCCCC2)cc1)C1=C(O)C(Cc2ccccc2)OC1=O (centres undefined)	1 µg/mL (≈ 2.55 µM)	64 µg/mL (≈ 163 µM)	–	500 nM	32 µg/mL (≈ 81.7 µM)	> 50000 nM
O=C(Nc1ccc(-c2ccccc2)cc1)C1=C(O)C(Cc2ccccc2)OC1=O (centres undefined)	4 µg/mL (≈ 10.4 µM)	> 128 µg/mL	–	1100 nM	32 µg/mL (≈ 83 µM)	–

Second part, the compound after the results:

MIC (Streptococcus pneumoniae)	MIC (Staphylococcus aureus)	pKa [1]	IC50 (Isoprenyl transferase)	MIC (Enterococcus faecalis)	IC50 [2]	SMILES
4 µg/mL (≈ 10.8 µM)	> 64 µg/mL	6.5	200 nM	64 µg/mL (≈ 173 µM)	–	CC(C)CC1CC(O)=C(C(=O)Nc2ccc(C3CCCCC3)cc2)C(=O)N1 (centres undefined)
8 µg/mL (≈ 19.8 µM)	32 µg/mL (≈ 79.1 µM)	6.5	40 nM	64 µg/mL (≈ 158 µM)	> 50000 nM	O=C(Nc1ccc(C2CCCCC2)cc1)C1=C(O)CC(Cc2ccccc2)NC1=O (centres undefined)
32 µg/mL (≈ 77.2 µM)	16 µg/mL (≈ 38.6 µM)	6.5	110 nM	64 µg/mL (≈ 154 µM)	> 50000 nM	O=C(Nc1ccc(Oc2ccccc2)cc1)C1=C(O)CC(Cc2ccccc2)NC1=O (centres undefined)
4 µg/mL (≈ 10.2 µM)	4 µg/mL (≈ 10.2 µM)	6.5	180 nM	64 µg/mL (≈ 164 µM)	> 50000 nM	O=C(Nc1ccc(C2CCCCC2)cc1)C1=C(O)C[C@H](c2ccccc2)NC1=O
64 µg/mL (≈ 195 µM)	64 µg/mL (≈ 195 µM)	6.5	70 nM	64 µg/mL (≈ 195 µM)	> 50000 nM	O=C(NC1CCCCC1)C1=C(O)CC(Cc2ccccc2)NC1=O (centres undefined)
64 µg/mL (≈ 158 µM)	64 µg/mL (≈ 158 µM)	6.5	110 nM	64 µg/mL (≈ 158 µM)	> 50000 nM	O=C(Nc1ccc(N2CCCCC2)cc1)C1=C(O)CC(Cc2ccccc2)NC1=O (centres undefined)
1 µg/mL (≈ 2.47 µM)	4 µg/mL (≈ 9.89 µM)	3	160 nM	4 µg/mL (≈ 9.89 µM)	> 100000 nM	O=C(Nc1ccc(C2CCCCC2)cc1)C1=C(O)C(CCc2ccccc2)NC1=O (centres undefined)
> 32 µg/mL	> 32 µg/mL	6.5	60 nM	32 µg/mL (≈ 80.7 µM)	–	O=C(Nc1ccc(C2CCCCC2)cc1)C1=C(O)CC(C2CCCCC2)NC1=O (centres undefined)
2 µg/mL (≈ 5.02 µM)	4 µg/mL (≈ 10 µM)	3	120 nM	16 µg/mL (≈ 40.2 µM)	> 100000 nM	O=C(Nc1ccc(-c2ccccc2)cc1)C1=C(O)C(CCc2ccccc2)NC1=O (centres undefined)
4 µg/mL (≈ 10.2 µM)	4 µg/mL (≈ 10.2 µM)	6.5	70 nM	64 µg/mL (≈ 164 µM)	> 100000 nM	O=C(Nc1ccc(C2CCCCC2)cc1)C1=C(O)C[C@@H](c2ccccc2)NC1=O
8 µg/mL (≈ 20.4 µM)	16 µg/mL (≈ 40.9 µM)	6.5	140 nM	16 µg/mL (≈ 40.9 µM)	> 50000 nM	O=C(Nc1ccc(C(F)(F)F)nc1)C1=C(O)CC(Cc2ccccc2)NC1=O (centres undefined)
